Measured values taken from publication PMC11779965 (Nature Communications, 2025).

Legend:
physchem = conditions: pH 7.4, […]
female CD-1 mice = assay: Catalepsy bar test; type: in vivo; conditions: 200 mg/kg IP, 90 min after dosing
[1] = clogP calculated with ChemAxon Marvin Sketch; conditions: 78 vs Sulfadiazine

| SMILES | Catalepsy score compared to Vehicle-treated group (in words) (female CD-1 mice) | also measured |
| --- | --- | --- |
| Nc1ccc(S(=O)(=O)Nc2ncccn2)cc1 [Sulfadiazine] |  | logD (physchem): -0.8 |
| CCN(CC)CCNC(=O)c1cc(S(C)(=O)=O)ccc1OC [Tiapride] | significantly higher |  |
| CCN(CC)CCNC(=O)c1cc(S(C)(=O)=O)cnc1OC [Compound 79] | remained at the level of the Control Vehicle-treated group |  |
| CS(=O)(=O)c1cnc(NS(=O)(=O)c2ccc(N)cc2)nc1.Cl [Compound 78] |  | Decrease of lipophilicity on replacement of H with MeSO2 [1]: ca. 1.2 clogP units |
